Measured values: ChEMBL document CHEMBL4342484, “Structure-Activity Relationship for the Oxadiazole Class of Antibacterials” (ACS Med Chem Lett, 2020)
Values after ≈ are worked out from the molar mass of the structure shown.

Key:
Staphylococcus aureus [1] = test: Antibacterial activity against Staphylococcus aureus ATCC 29213 by broth microdilution method; assay type: functional
[2] = Hemolytic activity in human RBC relative to control; assay type: ADME, cell-based, Erythrocyte; conditions: red blood cells (erythrocytes), read-out: Activity
[3] = Plasma protein binding in human at […] incubated for 2 hrs by UPLC analysis; assay type: ADME, cell-free; conditions: read-out: PPB (converted)
HepG2 = test: Cytotoxicity against human HepG2 cells assessed as reduction in cell viability by XTT assay; assay type: cell-based
[4] = test system: Staphylococcus haemolyticus; test: Antibacterial activity against Staphylococcus haemolyticus ATCC 29970 by broth microdilution method; assay type: functional
Enterococcus faecalis [5] = test: Antibacterial activity against Enterococcus faecalis ATCC 29212 by broth microdilution method; assay type: functional
Staphylococcus aureus [6] = test: Antibacterial activity against vancomycin-resistant Staphylococcus aureus VRS2 clinical isolate by broth microdilution method; assay type: functional
Enterococcus faecalis [7] = test: Antibacterial activity against vancomycin-susceptible Enterococcus faecalis 201 clinical isolate by broth microdilution method; assay type: functional
Staphylococcus aureus [8] = test: Antibacterial activity against vancomycin-resistant Staphylococcus aureus VRS1 clinical isolate by broth microdilution method; assay type: functional

With COc1ccc(-c2noc(-c3n[nH]cc3Cl)n2)cc1 the MIC (Staphylococcus aureus [1]) was ≥ 128 µg/mL.

For CC(=O)N1CCC(Oc2ccc(-c3noc(-c4ccc(O)cc4)n3)cc2)CC1, the MIC (Staphylococcus aureus [1]) was ≥ 128 µg/mL.

Oc1ccc(-c2nc(-c3ccc(Oc4cccc(I)c4)cc3)no2)cc1 gave an MIC (Staphylococcus aureus [1]) of 4 µg/mL (≈ 8.77 µM).

For Oc1ccc(-c2nc(-c3ccc(OC4CCOC4)cc3)no2)cc1 (configuration not stated), the MIC (Staphylococcus aureus [1]) was ≥ 128 µg/mL.

For NC(=O)c1ccccc1Oc1ccc(-c2noc(-c3ccc(O)cc3)n2)cc1, the MIC (Staphylococcus aureus [1]) was ≥ 128 µg/mL.

With Clc1c[nH]nc1-c1nc(-c2ccc(OC3CCCC3)cc2)no1 the MIC (Staphylococcus aureus [1]) was ≥ 128 µg/mL.

For O=C(c1cccc(Oc2ccc(-c3noc(-c4ccc(O)cc4)n3)cc2)c1)C(F)(F)F, the MIC (Staphylococcus aureus [1]) was 4 µg/mL (≈ 9.38 µM).

With CC(=O)c1ccc(Oc2ccc(-c3noc(-c4n[nH]cc4Cl)n3)cc2)cc1 the MIC (Staphylococcus aureus [1]) was ≥ 128 µg/mL.

With Oc1ccc(-c2nc(-c3ccc(Oc4ccc(CBr)cc4)cc3)no2)cc1 the MIC (Staphylococcus aureus [1]) was ≥ 128 µg/mL.

For [N-]=[N+]=Nc1ccc(Oc2ccc(-c3noc(-c4ccc(O)cc4)n3)cc2)cc1, the MIC (Staphylococcus aureus [1]) was 2 µg/mL (≈ 5.39 µM).

Compound CN1CCCC(Oc2ccc(-c3noc(-c4n[nH]cc4Cl)n3)cc2)C1 (configuration not stated) has an MIC (Staphylococcus aureus [1]) of 128 µg/mL (≈ 356 µM).

For N#Cc1ccc(Oc2ccc(-c3noc(-c4ccc(O)cc4)n3)cc2)cc1, the MIC (Staphylococcus aureus [1]) was ≥ 128 µg/mL.

Compound [N-]=[N+]=Nc1cccc(Oc2ccc(-c3noc(-c4ccc(O)cc4)n3)cc2)c1 has an MIC (Staphylococcus aureus [1]) of 2 µg/mL (≈ 5.39 µM).

In the case of CC(=O)NCCOc1ccc(-c2noc(-c3ccc(O)cc3)n2)cc1, the MIC (Staphylococcus aureus [1]) is reported as > 128 µg/mL.

For Nc1ccccc1Oc1ccc(-c2noc(-c3ccc(O)cc3)n2)cc1, the MIC (Staphylococcus aureus [1]) was ≥ 128 µg/mL.

In the case of CC(C)(C)OC(=O)N1CCC(Oc2ccc(-c3noc(-c4n[nH]cc4Cl)n3)cc2)C1 (configuration not stated), the MIC (Staphylococcus aureus [1]) is reported as ≥ 128 µg/mL.

With Oc1ccc(-c2nc(-c3ccc(Oc4ccc(OC(F)(F)F)cc4)cc3)no2)cc1 the hemolysis [2] was 2.1%, the fraction unbound at 2 h [3] was 0.002 and the MIC (Staphylococcus aureus [1]) was 2 µg/mL (≈ 4.83 µM). It also gave an IC50 (HepG2) of 16.9 µg/mL (≈ 40.8 µM).

With Oc1ccc(-c2nc(-c3ccc(Oc4cccc(Br)c4)cc3)no2)cc1 the MIC (Staphylococcus aureus [1]) was 4 µg/mL (≈ 9.77 µM).

Work on Oc1ccc(-c2nc(-c3ccc(Oc4ccc(Br)cc4)cc3)no2)cc1 yielded an MIC (Staphylococcus aureus [1]) of 2 µg/mL (≈ 4.89 µM).

In the case of CC(C)(C)Oc1ccc(-c2noc(-c3ccc(O)cc3)n2)cc1, the MIC (Staphylococcus aureus [1]) is reported as ≥ 128 µg/mL.

For CN[C@H](CC(C)C)C(=O)N[C@H]1C(=O)N[C@@H](CC(N)=O)C(=O)N[C@H]2C(=O)N[C@H]3C(=O)N[C@H](C(=O)N[C@H](C(=O)O)c4cc(O)cc(O)c4-c4cc3ccc4O)[C@H](O)c3ccc(c(Cl)c3)Oc3cc2cc(c3O[C@@H]2O[C@H](CO)[C@@H](O)[C@H](O)[C@H]2O[C@H]2C[C@](C)(N)[C@H](O)[C@H](C)O2)Oc2ccc(cc2Cl)[C@H]1O [VANCOMYCIN], the MIC [4] was 4 µg/mL (≈ 2.76 µM), the MIC (Enterococcus faecalis [5]) was 2 µg/mL (≈ 1.38 µM) and the MIC (Staphylococcus aureus [6]) was 32 µg/mL (≈ 22.1 µM). The MIC (Enterococcus faecalis [7]) was 1 µg/mL (≈ 0.69 µM) and the MIC (Staphylococcus aureus [8]) was 64 µg/mL (≈ 44.2 µM).

For COc1ccc2oc3ccc(-c4noc(-c5ccc(O)cc5)n4)cc3c2c1, the MIC (Staphylococcus aureus [1]) was ≥ 128 µg/mL.

In the case of CS(=O)(=O)Oc1ccc(-c2noc(-c3ccc(O)cc3)n2)cc1, the MIC (Staphylococcus aureus [1]) is reported as ≥ 128 µg/mL.

Work on CN1[C@@H]2CC[C@@H]1CC(Oc1ccc(-c3noc(-c4n[nH]cc4Cl)n3)cc1)C2 (some centres not stated) yielded an MIC (Staphylococcus aureus [1]) of 64 µg/mL (≈ 166 µM).

For Cl.Oc1ccc(-c2nc(-c3ccc(OC4CCNC4)cc3)no2)cc1 (configuration not stated), the MIC (Staphylococcus aureus [1]) was 16 µg/mL.

In the case of Cl.NC1CCC(Oc2ccc(-c3noc(-c4ccc(O)cc4)n3)cc2)CC1 (configuration not stated), the MIC (Staphylococcus aureus [1]) is reported as ≥ 128 µg/mL.

With Oc1ccc(-c2nc(-c3ccc(OC4CCCNC4)cc3)no2)cc1 (configuration not stated) the MIC (Staphylococcus aureus [1]) was 64 µg/mL (≈ 190 µM).

Compound Fc1ccc(Oc2ccc(-c3noc(-c4n[nH]cc4Cl)n3)cc2)cc1F has a hemolysis [2] of 1.3%, a fraction unbound at 2 h [3] of 0.011 and an MIC (Staphylococcus aureus [1]) of 0.5 µg/mL (≈ 1.33 µM). For the same compound, the IC50 (HepG2) was 17.7 µg/mL (≈ 47.2 µM).

Cl.NCCCOc1ccc(-c2noc(-c3ccc(O)cc3)n2)cc1 gave an MIC (Staphylococcus aureus [1]) of 16 µg/mL.

Compound Oc1ccc(-c2nc(-c3ccc(Oc4ccccc4CBr)cc3)no2)cc1 has an MIC (Staphylococcus aureus [1]) of 8 µg/mL (≈ 18.9 µM).

With FC(F)(F)Oc1ccc(-c2noc(-c3ccc4[nH]ccc4c3)n2)cc1 the MIC (Staphylococcus aureus [1]) was ≥ 128 µg/mL.

With Oc1ccc(-c2nc(-c3ccc4oc5ccccc5c4c3)no2)cc1 the MIC (Staphylococcus aureus [1]) was ≥ 128 µg/mL.

For FC(F)(F)Oc1ccc2oc3ccc(-c4noc(-c5n[nH]cc5Cl)n4)cc3c2c1, the MIC (Staphylococcus aureus [1]) was > 128 µg/mL.

For CN1CCCC(Oc2ccc(-c3noc(-c4ccc(O)cc4)n3)cc2)C1 (configuration not stated), the MIC (Staphylococcus aureus [1]) was 64 µg/mL (≈ 182 µM).

With CN(C)C(=O)Oc1ccc(-c2noc(-c3ccc(O)cc3)n2)cc1 the MIC (Staphylococcus aureus [1]) was ≥ 128 µg/mL.

In the case of COc1ccc(Oc2ccc(-c3noc(-c4ccc(O)cc4)n3)cc2)cc1, the MIC (Staphylococcus aureus [1]) is reported as 2 µg/mL (≈ 5.55 µM).

In the case of COc1ccc(-c2noc(-c3ccc(O)cc3)n2)cc1, the MIC (Staphylococcus aureus [1]) is reported as 32 µg/mL (≈ 119 µM).
